# Like-named read-outs stand apart in the source and are kept apart here.
# Key:
# carragenin-induced edema [1] = details: background statement, prior ester; cited from earlier work
# healthy animals = details: background statement, prior ester; cited from earlier work
# in vivo [2] = details: rat
# [3] = test system: platelet aggregation (ADP-induced); test: in vitro anti-platelet aggregant activity (Born's method, ADP); type: cell-based, rat; details: Rattus norvegicus, Platelet, ADP 7.08 μmol/l, read-out: Inhibition % (platelet aggregation)
# Procedure: This activity was studied in vitro following Born's method (G. W. R. Born, Nature, 194, 937 (1962)) and inducing platelet aggregation with ADP. […] For the aggregation test, 0.2 ml of platelet rich plasma was mixed with a NaCl solution (0.9%) to which the test substance was added up to a final volume of 0.6 ml. Incubation was fixed at 3 minutes at 27° C. After aggregation was induced with ADP, the course of the aggregation was monitored continuously with an Elvi 840 Aggregometer (Elvi Logos--Milan). The antiaggregant effects were determined by the difference in the light transmission of the sample with respect to that of the ADP control. The test compound was compared with aspirin, which has known antiplatelet aggregant activity (H. J. Weiss et al., J. Clin. Inv., 47, 2169 (1968); Platelet Aggregation and Drugs, edited by L. Caprino and E. C. Rossi, page 235, Academic Press (London), 1974).
# Table VI reports the inhibition of platelet aggregation with various doses of the compounds tested at a constant ADP concentration.
# in vivo [4] = details: mouse
# [5] = test system: p-phenylquinone-induced writhing; test: p-phenylquinone-induced writhing test (analgesic activity); type: in vivo; details: an hour after administration
# Procedure: (§1) Preparations of the compound were administered orally and/or parenterally in a suspension in 0.59% carboxymethylcellulose in pH neutral physiological saline.
# The determination was made an hour after administration of the product. The inhibitory effect on abdominal contractions induced by phenyl-p-quinone was calculated as follows: [formula]
# Table IV reports the doses, the administration routes and their effectiveness expressed as % protection.
# [6] = test system: hyperthermia induced by dry purified beer yeast; test: antipyretic activity, beer yeast-induced hyperthermia; type: in vivo, Wistar strain male albino rats
# Procedure: as §1
# This effect was evaluated by inducing hyperthermia in Wistar strain male albino rats with an average weight of 250±10 g, injecting them intraperitoneally with a 10% suspension of dry purified beer yeast (Carlo Erba) in a volume of 10 ml/Kg of body weight, according to the method of S. Wong et al. (J. Pharmac. Exp. Ther., 185 (1), 127 (1973)).
# gastric mucosa = test: gastric tolerance (ulcerogenic activity); details: orally, four consecutive days; for Incidence % / 10: groups of 10 animals; for Mean number severity: severity scale 0-5
# Procedure: This was studied by testing ulcerogenic activity in male Wistar rats weighing an average of 180 g, using groups of 10 animals each. Three doses of each substance were used, and one group of animals was treated with vehicle only, in a volume of 10 ml/g body weight. Each dose was administered orally for four consecutive days, and the rats were killed on the fifth day and autopsied. The ulcerogenic effect was evaluated on the following scale:
# (1) each hemorrhage point >1 mm was evaluated as 1 lesion
# (2) the hemorrhage points <1 were counted as follows:
# (b) from 1 to 19 2 lesions
# (c) from 1 to 29 3 lesions
# (2) gastric mucosa irritation
# (3) hemorrhage points <1 mm
# (4) hemorrhage points from 1 to 3 mm
# (5) hemorrhage points >3 mm
# This scale was used to calculate the following index of gastric damage: [formula]
# carragenin-induced edema [7] = test: carragenin-induced edema test (antinflammatory activity); type: in vivo, rats
# Procedure: as §1
# This effect was evaluated with an experimental model reproducing actue inflammation in rats: the carragenin-induced edema test was used, according to the method of C. A. Winter (G. Pharmac. Exp. Ther., 141, 369 (1963)). Table III reports the compounds tested, their concentrations, administration routes and relative percent edema inhibition.
# mouse = details: in vivo
smiles,measurement,setting,value
"COc1ccccc1OC(=O)CNC(=O)Cc1ccc(C(=O)c2ccc(C)cc2)n1C [Compound 4, 1-methyl-5-p-methylbenzoylpyrrole-2-acetamidoacetate of o-methoxyphenol]","antinflammatory, analgesic, antipyretic, antisecretive and cough suppressing activity versus Tolmetin (in words)",carragenin-induced edema [1],greater than that of Tolmetin
same,duration of action versus Tolmetin (in words),carragenin-induced edema [1],longer lasting action
same,toxicity versus Tolmetin (in words),healthy animals,lower toxicity
Cc1ccc(C(=O)c2ccc(CC(=O)NCC(=O)Nc3cccc(Cl)c3)n2C)cc1 [Compound 1b],LD50,in vivo [2]; ip,1200 mg/kg
same,LD50,in vivo [2]; po,> 1420 mg/kg
same,inhibition at 1 µg/mL,[3]; 1 γ/ml,25%
same,inhibition at 5 µg/mL,[3]; 5 γ/ml,100%
same,inhibition at 10 µg/mL,[3]; 10 γ/ml,100%
same,LD50,in vivo [4]; ip,1370 mg/kg
same,LD50,in vivo [4]; po,> 1500 mg/kg
same,Protection %,"[5]; i.p., 5 mg/kg",18.7%
same,Protection %,"[5]; i.p., 10 mg/kg",42.3%
same,Protection %,"[5]; i.p., 20 mg/kg",69.5%
same,Protection %,"[5]; os, 5 mg/kg",16.1%
same,Protection %,"[5]; os, 10 mg/kg",36.2%
same,Protection %,"[5]; os, 20 mg/kg",69.1%
same,Temperature decrease %,"[6]; i.p., 50 mg/kg, 1 h",16.0%
same,Temperature decrease %,"[6]; i.p., 50 mg/kg, 2 h",19.3%
same,Temperature decrease %,"[6]; i.p., 50 mg/kg, 3 h",33.0%
same,Temperature decrease %,"[6]; i.p., 75 mg/kg, 1 h",26.0%
same,Temperature decrease %,"[6]; i.p., 75 mg/kg, 2 h",36.1%
same,Temperature decrease %,"[6]; i.p., 75 mg/kg, 3 h",40.0%
same,Temperature decrease %,"[6]; i.p., 100 mg/kg, 1 h",39.1%
same,Temperature decrease %,"[6]; i.p., 100 mg/kg, 2 h",40.0%
same,Temperature decrease %,"[6]; i.p., 100 mg/kg, 3 h",30.5%
same,Temperature decrease %,"[6]; os, 50 mg/kg, 1 h",19.0%
same,Temperature decrease %,"[6]; os, 50 mg/kg, 6 h",19.5%
same,Temperature decrease %,"[6]; os, 50 mg/kg, 24 h",29.8%
same,Temperature decrease %,"[6]; os, 75 mg/kg, 1 h",20.0%
same,Temperature decrease %,"[6]; os, 75 mg/kg, 6 h",30.0%
same,Temperature decrease %,"[6]; os, 75 mg/kg, 24 h",40.1%
same,Temperature decrease %,"[6]; os, 100 mg/kg, 1 h",30.0%
same,Temperature decrease %,"[6]; os, 100 mg/kg, 6 h",33.1%
same,Temperature decrease %,"[6]; os, 100 mg/kg, 24 h",31.2%
same,Index gastric damage,gastric mucosa; 50 mg/kg,8
same,"Index gastric damage, signed figure (untitled; difference from Carrier index 8)",gastric mucosa; 50 mg/kg,+0
same,Mean number lesions,gastric mucosa; 50 mg/kg,1
same,Incidence % / 10,gastric mucosa; 50 mg/kg,5 %/10
same,Mean number severity,gastric mucosa; 50 mg/kg,2
same,Index gastric damage,gastric mucosa; 100 mg/kg,11
same,"Index gastric damage, signed figure (untitled; difference from Carrier index 8)",gastric mucosa; 100 mg/kg,+3
same,Mean number lesions,gastric mucosa; 100 mg/kg,2
same,Incidence % / 10,gastric mucosa; 100 mg/kg,7 %/10
same,Mean number severity,gastric mucosa; 100 mg/kg,2
same,Index gastric damage,gastric mucosa; 200 mg/kg,14
same,"Index gastric damage, signed figure (untitled; difference from Carrier index 8)",gastric mucosa; 200 mg/kg,+6
same,Mean number lesions,gastric mucosa; 200 mg/kg,3
same,Incidence % / 10,gastric mucosa; 200 mg/kg,8 %/10
same,Mean number severity,gastric mucosa; 200 mg/kg,3
same,Oedema inhibition %,"carragenin-induced edema [7]; i.p., 10 mg/kg, 3 h",30.1%
same,Oedema inhibition %,"carragenin-induced edema [7]; i.p., 10 mg/kg, 6 h",29.0%
same,Oedema inhibition %,"carragenin-induced edema [7]; i.p., 10 mg/kg, 24 h",0.0%
same,Oedema inhibition %,"carragenin-induced edema [7]; i.p., 50 mg/kg, 3 h",49.2%
same,Oedema inhibition %,"carragenin-induced edema [7]; i.p., 50 mg/kg, 6 h",43.5%
same,Oedema inhibition %,"carragenin-induced edema [7]; i.p., 50 mg/kg, 24 h",2.3%
same,Oedema inhibition %,"carragenin-induced edema [7]; i.p., 100 mg/kg, 3 h",65.4%
same,Oedema inhibition %,"carragenin-induced edema [7]; i.p., 100 mg/kg, 6 h",62.0%
same,Oedema inhibition %,"carragenin-induced edema [7]; i.p., 100 mg/kg, 24 h",16.4%
same,Oedema inhibition %,"carragenin-induced edema [7]; os, 10 mg/kg, 3 h",29.8%
same,Oedema inhibition %,"carragenin-induced edema [7]; os, 10 mg/kg, 6 h",22.3%
same,Oedema inhibition %,"carragenin-induced edema [7]; os, 10 mg/kg, 24 h",0.0%
same,Oedema inhibition %,"carragenin-induced edema [7]; os, 50 mg/kg, 3 h",47.3%
same,Oedema inhibition %,"carragenin-induced edema [7]; os, 50 mg/kg, 6 h",44.1%
same,Oedema inhibition %,"carragenin-induced edema [7]; os, 50 mg/kg, 24 h",0.0%
same,Oedema inhibition %,"carragenin-induced edema [7]; os, 100 mg/kg, 3 h",61.9%
same,Oedema inhibition %,"carragenin-induced edema [7]; os, 100 mg/kg, 6 h",59.8%
same,Oedema inhibition %,"carragenin-induced edema [7]; os, 100 mg/kg, 24 h",15.3%
COc1ccc(OC)c(NC(=O)CNC(=O)Cc2ccc(C(=O)c3ccc(C)cc3)n2C)c1 [Compound 1g],LD50,in vivo [4]; ip,1430 mg/kg
same,LD50,in vivo [4]; po,> 1500 mg/kg
same,Protection %,"[5]; i.p., 5 mg/kg",23.0%
same,Protection %,"[5]; i.p., 10 mg/kg",56.9%
same,Protection %,"[5]; i.p., 20 mg/kg",74.2%
same,Protection %,"[5]; os, 5 mg/kg",20.1%
same,Protection %,"[5]; os, 10 mg/kg",50.3%
same,Protection %,"[5]; os, 20 mg/kg",76.0%
same,Temperature decrease %,"[6]; i.p., 50 mg/kg, 1 h",26.0%
same,Temperature decrease %,"[6]; i.p., 50 mg/kg, 2 h",27.0%
same,Temperature decrease %,"[6]; i.p., 50 mg/kg, 3 h",26.0%
same,Temperature decrease %,"[6]; i.p., 75 mg/kg, 1 h",32.1%
same,Temperature decrease %,"[6]; i.p., 75 mg/kg, 2 h",34.5%
same,Temperature decrease %,"[6]; i.p., 75 mg/kg, 3 h",40.0%
same,Temperature decrease %,"[6]; i.p., 100 mg/kg, 1 h",39.1%
same,Temperature decrease %,"[6]; i.p., 100 mg/kg, 2 h",46.0%
same,Temperature decrease %,"[6]; i.p., 100 mg/kg, 3 h",41.0%
same,Temperature decrease %,"[6]; os, 50 mg/kg, 1 h",17.1%
same,Temperature decrease %,"[6]; os, 50 mg/kg, 6 h",27.1%
same,Temperature decrease %,"[6]; os, 50 mg/kg, 24 h",29.1%
same,Temperature decrease %,"[6]; os, 75 mg/kg, 1 h",19.6%
same,Temperature decrease %,"[6]; os, 75 mg/kg, 6 h",30.1%
same,Temperature decrease %,"[6]; os, 75 mg/kg, 24 h",43.1%
same,Temperature decrease %,"[6]; os, 100 mg/kg, 1 h",23.1%
same,Temperature decrease %,"[6]; os, 100 mg/kg, 6 h",33.0%
same,Temperature decrease %,"[6]; os, 100 mg/kg, 24 h",42.1%
same,Index gastric damage,gastric mucosa; 50 mg/kg,8
same,"Index gastric damage, signed figure (untitled; difference from Carrier index 8)",gastric mucosa; 50 mg/kg,+0
same,Mean number lesions,gastric mucosa; 50 mg/kg,1
same,Incidence % / 10,gastric mucosa; 50 mg/kg,6 %/10
same,Mean number severity,gastric mucosa; 50 mg/kg,1
same,Index gastric damage,gastric mucosa; 100 mg/kg,11
same,"Index gastric damage, signed figure (untitled; difference from Carrier index 8)",gastric mucosa; 100 mg/kg,+3
same,Mean number lesions,gastric mucosa; 100 mg/kg,2
same,Incidence % / 10,gastric mucosa; 100 mg/kg,7 %/10
same,Mean number severity,gastric mucosa; 100 mg/kg,2
same,Index gastric damage,gastric mucosa; 200 mg/kg,14
same,"Index gastric damage, signed figure (untitled; difference from Carrier index 8)",gastric mucosa; 200 mg/kg,+6
same,Mean number lesions,gastric mucosa; 200 mg/kg,3
same,Incidence % / 10,gastric mucosa; 200 mg/kg,9 %/10
same,Mean number severity,gastric mucosa; 200 mg/kg,2
same,Oedema inhibition %,"carragenin-induced edema [7]; i.p., 10 mg/kg, 3 h",35.6%
same,Oedema inhibition %,"carragenin-induced edema [7]; i.p., 10 mg/kg, 6 h",37.0%
same,Oedema inhibition %,"carragenin-induced edema [7]; i.p., 10 mg/kg, 24 h",0.0%
same,Oedema inhibition %,"carragenin-induced edema [7]; i.p., 50 mg/kg, 3 h",50.1%
same,Oedema inhibition %,"carragenin-induced edema [7]; i.p., 50 mg/kg, 6 h",50.0%
same,Oedema inhibition %,"carragenin-induced edema [7]; i.p., 50 mg/kg, 24 h",6.1%
same,Oedema inhibition %,"carragenin-induced edema [7]; i.p., 100 mg/kg, 3 h",71.0%
same,Oedema inhibition %,"carragenin-induced edema [7]; i.p., 100 mg/kg, 6 h",71.5%
same,Oedema inhibition %,"carragenin-induced edema [7]; i.p., 100 mg/kg, 24 h",22.9%
same,Oedema inhibition %,"carragenin-induced edema [7]; os, 10 mg/kg, 3 h",30.4%
same,Oedema inhibition %,"carragenin-induced edema [7]; os, 10 mg/kg, 6 h",37.9%
same,Oedema inhibition %,"carragenin-induced edema [7]; os, 10 mg/kg, 24 h",1.2%
same,Oedema inhibition %,"carragenin-induced edema [7]; os, 50 mg/kg, 3 h",51.4%
same,Oedema inhibition %,"carragenin-induced edema [7]; os, 50 mg/kg, 6 h",49.0%
same,Oedema inhibition %,"carragenin-induced edema [7]; os, 50 mg/kg, 24 h",7.9%
same,Oedema inhibition %,"carragenin-induced edema [7]; os, 100 mg/kg, 3 h",72.3%
same,Oedema inhibition %,"carragenin-induced edema [7]; os, 100 mg/kg, 6 h",70.0%
same,Oedema inhibition %,"carragenin-induced edema [7]; os, 100 mg/kg, 24 h",25.1%
same,DL50 (LD50),mouse; ip,1200 mg/kg
same,DL50 (LD50),mouse; po,1470 mg/kg

# Reference: US4568690A, “1-Methyl-5-p-methylbenzoylpyrrole-2-acetamidoacetanilides with antiinflammatory, analgesic, antipyretic and anti-platelet aggregant activity” (priority 1983, dated 1986)
